Like-named read-outs stand apart in the source and are kept apart here.
Columns and labels:
[1] = tested on: TNF-α; assay: LPS-stimulated TNF-α protein synthesis and secretion in RAW264.7 cells (ELISA); format: cell-based, mouse; settings: LPS 100 ng/ml 8 h; for inhibition at 300 µg/mL: dose of 300 μg/ml
Method: RAW264.7 cells were pre-treated with AKF-PD for 4 hours at the following doses: 0, 30 μg/ml, 100 μg/ml, and 300 μg/ml. Cells were then stimulated by the treatment with LPS at 100 ng/ml for 8 hours. Cell lysate was prepared from the harvested cells. Media from the cell culture were collected, concentrated 10-fold. Both cell lysate (B) and media (A) were subjected to ELISA assay (OptEIA™) specific for mouse TNF-α according to the manufacturer's instructions (BD Biosciences). Each column with error bar represents the average of triplicate TNF-α assay results and the standard deviation (SD). Statistical comparisons for AKF-PD treated cells relative to the controls indicate P<0.001 for secreted levels (A) at all three doses; and P<0.01 for cellular levels (B) at doses of 100 and 300 μg/ml, respectively.
The effect of AKF-PD on TNF-α protein synthesis and secretion was analyzed in LPS-stimulated RAW264.7 cells. Cells were pretreated with AKF-PD and then stimulated by LPS. Both secreted and cellular levels of TNF-α protein were determined. […] Therefore, the exposure of RAW264.7 cells to AKF-PD exerted a significant and dose-dependent suppression of levels of both cell-associated and secreted TNF-α protein.

[2] = tested on: p38; assay: LPS-induced p38 activation in RAW264.7 macrophages (Western blot, phospho-p38); format: cell-based, mouse; settings: RAW264.7 cells pretreated 100 and 500 μg/ml, 4 h; LPS 10 ng/ml, 30 min
Method: Mouse macrophage RAW264.7 cells were pretreated with AKF-PD (100 and 500 μg/ml, 4 h) or PFD (100 and 500 μg/ml, 4 h) and then exposed to LPS (10 ng/ml, 30 min). Total cell lysates were processed by SDS-PAGE and membranes blotted with a phosphospecific p38 and normalized with p38.
The MAPK family of proteins comprises of three-tiered cascades of Erk1/2, p38, and JNK. The p38 kinase is activated by phosphorylation of a conserved Thr-Gly-Tyr motif in the activation loop. The activated p38 is then able to phosphorylate a wide variety of targets in the cytoplasm and nucleus, resulting in cellular responses such as apoptosis, inflammation, and fibrosis. We first analyzed the anti-inflammatory properties of AKF-PD in p38 signaling in lipopolysaccharide (LPS)-stimulated mouse macrophages RAW264.7 cells. Cells are pre-treated with AKF-PD or pirfenidone (PFD) for 4 hours and then stimulated by treatment with LPS. […] No effects on total p38 protein levels were observed showing that AKF-PD and PFD have no effect on protein stability. […] The potential upstream targets for AKF-PD include upstream kinases MAPKK3 (MKK3) and MAPKK6 (MKK6).

[3] = tested on: TNF-α mRNA; assay: LPS-stimulated TNF-α mRNA synthesis in RAW264.7 macrophages (real time PCR); format: cell-based, mouse; settings: LPS 10 ng/ml 20 h; for inhibition of LPS-stimulated TNF-α mRNA synthesis: dose of 500 μg/ml; for inhibition on LPS-stimulated TNF-α mRNA synthesis: pre-treated 4 h at 10, 100, 500 μg/ml
Method: Mouse macrophage RAW264.7 cells were pre-treated with AKF-PD or PFD for 4 hours at the following doses: 0, 10 μg/ml, 100 μg/ml, and 500 μg/ml. Cells are then stimulated by treatment with LPS at 10 ng/ml for 20 hours. Expression of TNF-α mRNA is assayed by a quantitative real time PCR analysis using the TaqMan PCR core reagent kit (Applied Biosystems). TNF-α gene expression in the control non-treated cells was taken as 1 and regarded as control. All the other values were expressed as fold increase of the control. The mouse beta actin gene was used as endogenous control. Each column with error bar represents the mean mRNA level±SD of duplicate samples. Statistical comparisons for all three AKF-PD doses relative to control indicate p<0.01; PFD at the doses of 100 and 500 μg/ml relative to control indicate P<0.01.
We next investigated the effect of AKF-PD on TNF-α transcription.

[4] = tested on: streptozotocin-induced diabetic rats; assay: Streptozotocin-induced diabetic nephropathy in rats; format: in vivo, Sprague-Dawley rats
Method: Diabetic kidney disease in the rat was induced by streptozotocin (STZ) to test the effectiveness of 5-methyl-2(1H)-pyridone (AKF-PD) in preserving kidney function by reducing the level of proteinuria.
Diabetic nephropathy was induced in Sprague-Dawley rats with a single intravenous injection of STZ (45 mg/kg). Streptozotocin was injected in a single dose of 45 mg/kg, i.v., to rats (Male Sprague-Dawley rats (200-250 g). Age-matched control rats received citrate buffer and were used in parallel with diabetic animals. Two days after STZ injection, plasma glucose levels were measured. Rats having plasma glucose levels>250 mg/dL after 4 weeks were selected for the study. Control and diabetic rats were divided into two groups, consisting of 6 animals each. AKF-PD was suspended in 0.5% sodium carboxy methylcellulose (CMC). From 4 to 8 weeks after the initial STZ injection, the first group of control animals received vehicle, and the second group received a suspension of AKF-PD (500 mg/kg per day) orally. Similarly, one group of diabetic rats received vehicle and the second group received AKF-PD (500 mg/kg per day). At the end of 8th week, rats were kept individually in metabolic cages for 24 h to collect urine for the measurements. Renal function was assessed by measuring plasma and urine levels of creatinine and urea and urine albumin excretion. Plasma glucose levels were also measured at 4 weeks and at the end of the experiment to investigate the effect of AKF-PD on glucose levels. Urinary proteins were measured by Bio-Rad protein assay (Bio-Rad, Hercules, Calif.). Blood urea nitrogen and creatinine levels were measured using Beckman analyzers (BUN Analyzer II, and Creatinine Analyzer II Beckman Instruments Inc., Brea, Calif.).

[5] = tested on: rat UUO model; assay: Unilateral ureteral obstruction (UUO) model, tubulointerstitial injury score; format: in vivo, SD rats; settings: UUO rats; for Tubulointerstitial injury score (TIS): 500 mg/kg/d by gavage
Method: Kidney damage and fibrosis were induced by Unilateral Ureteral Obstruction in rat. The reno-protective effect of AKF-PD was evaluated in the rat UUO model.
Fixed tissues were dehydrated in graded alcohol and embedded in paraffin. Sections were stained with hematoxylin & eosin (HE) for general histology. Injury score was evaluated. On Day 7, the kidneys of rats subjected to ureteral obstruction developed a conspicuous tubulointerstitial injury characterized by tubular dilatation and atrophy, interstitial inflammation, and a marked interstitial fibrosis. The damage was more prominent on Day 15. Renal injury was ameliorated after treatments with AKF-PD as indicated by the lower tubulointerstitial injury scores and interstitial fibrosis expansion of these groups, with P<0.05 for all comparisons (Table 2).
Table 2. Comparison of histological scores for interstitial compartment. Eight weeks old male SD rats (180 g ˜220 g) were randomly divided into sham surgical group, disease model UUO group, and AKF-PD (500 mg/kg/d) group. […] The animals of the sham surgical group experienced the same surgical procedure except the ligation step. AKF-PD was administrated by gavage from one day prior to the procedure to 15 days post surgical procedure. Normal saline was administrated in a similar fashion to the rats in the groups of disease model and sham surgical. The animals were sacrificed 15 days after surgical procedure and their left kidney were removed for pathological (HE staining) examination. Histological scoring for interstitial compartment was done according to Radford's method (Predicting renal outcome in IgA nephropathy. J. Am. Soc. Nephrology, 1997; 8:199-207).

[6] = tested on: TGF-β; assay: TGF-β protein expression in kidney of rat UUO model (Western blot, densitometry); format: in vivo; settings: obstructed kidney
Source text: A. Western analysis of TGF-β protein expression. Two rats were sacrificed from groups of control sham operated, UUO, and UUO+AKF-PD at day 7 and day 15. Total protein was extracted from the kidney samples and subjected to Western analysis of TGF-β. The protein loading was normalized with actin. Lane 1, control sham at day 7; lane 2, control sham at day 15; lane 3, UUO at day 7; lane 4, UUO+AKF-PD at day 7; lane 5, UUO at day 15; lane 6, UUO+AKF-PD at day 15. B. Comparison of the intensity of bands on a Western blot by densitometry. The bands were scanned by densitometer and expressed as a fold increase over control sham operated rat at day 7, which was taken as 1.
TGF-β is a pro inflammatory cytokine and its overproduction plays critical role in tissue fibrosis. Using UUO model, we analyzed the effect of AKF-PD on TGF-β protein expression by Western blot. […] Densitometry analyses of the intensity of the bands indicate that TGF-β protein expression in obstructed kidneys was increased by 4.9- and 6.5-fold than those in the Sham group on Days 7 and 15, respectively.

[7] = tested on: rat renal fibroblasts; settings: in vitro; cited from earlier work
[8] = tested on: mild chronic anti-GBM nephritis in rats; settings: rat model of nephritis; cited from earlier work
[9] = tested on: patients with focal segmental glomerulosclerosis; settings: cited from earlier work
[10] = DN (diabetic) rats + AKF-PD 500 mg/kg per day p.o., 4 weeks, mean ± SEM (n = 6)

SMILES: Cc1ccc(=O)n(-c2cccc(F)c2)c1 [AKF-PD, 1-(3′-Fluorophenyl)-5-Methyl-2(1H)-Pyridone]
- inhibition on TNF-α protein levels ([1]; 30, 100, 300 μg/ml pre-treatment 4 h): dose-dependent inhibition
- inhibition at 100 µg/mL ([1]; Mus musculus, dose of 100 μg/ml, read-out: inhibition of secreted levels of TNF-α): 64%
- inhibition at 300 µg/mL ([1]; Mus musculus, read-out: inhibition of cellular levels of TNF-α): ~50%
- inhibition at 300 µg/mL ([1]; Mus musculus, read-out: inhibition of secreted levels of TNF-α): 89%
- LPS-induced p38 activation (phosphorylation) [2]: significantly blocked
- total p38 protein levels [2]: No effects
- inhibition of LPS-stimulated TNF-α mRNA synthesis [3]: Approximately 50%
- inhibition on LPS-stimulated TNF-α mRNA synthesis [3]: dose-dependent inhibition
- Urine output ([4]; DN (diabetic) rats + AKF-PD 500 mg/kg per day p.o., 4 weeks, 24 h urine, mean ± SEM (n = 6)): 15.25 ± 1.75 mL
- Blood urea nitrogen [4, 10]: 18.88 ± 1.50 mg/dL
- Serum creatinine [4, 10]: 0.75 ± 0.13 mg/dL
- Urinary albumin excretion [4, 10]: 6.10 ± 0.23 mg/dL
- renal dysfunction in diabetic rats ([4]; diabetic rats, 500 mg/kg per day from 4 to 8 weeks): significantly attenuated
- Tubulointerstitial injury score (TIS) ([5]; Day 7): 2.64 ± 0.79 #
- Tubulointerstitial injury score (TIS) ([5]; Day 15): 3.82 ± 0.43 #
- renal injury (tubulointerstitial injury scores and interstitial fibrosis expansion) ([5]; P<0.05): ameliorated
- reduction of TGF-β protein expression ([6]; Day 7, UUO rats): 55%
- reduction of TGF-β protein expression ([6]; Day 15, UUO rats): 71%
- proliferation of rat renal fibroblasts [7]: inhibit the proliferation

SMILES: Cc1ccc(=O)n(-c2ccccc2)c1 [PFD, pirfenidone, reference compound]
- urinary protein excretion [8]: caused a decline
- LPS-induced p38 activation (phosphorylation) [2]: significantly blocked
- total p38 protein levels [2]: No effects
- inhibition of LPS-stimulated TNF-α mRNA synthesis [3]: Approximately 50%
- inhibition on LPS-stimulated TNF-α mRNA synthesis [3]: dose-dependent inhibition
- effect on proteinuria ([9]; clinical data, open-label trial): does not have any effect
- monthly deterioration in GFR (median) ([9]; with pirfenidone therapy, 18 patients, median of 13-month treatment, baseline period −0.61): −0.45 ml/min per 1.73 m^2

Reference: patent US20100099719A1, “COMPOSITION AND METHOD FOR TREATING PROTEINURIA” (DIEREPHARMA, INC., priority 2008, published 2010)
